# Experimental data reported in patent US9797002B2, “Methods and kits for genome-wide methylation of GpC sites and genome-wide determination of chromatin structure” (UNIVERSITY OF SOUTHERN CALIFORNIA, priority 2010, dated 2017).
# Tested on: LD419
# Test: RT-PCR analysis of L1-MET reactivation after 5-Aza-CdR treatment
# Assay type: cell-based, human
# Conditions: LD419 fibroblast cell line, 1 or 3 μM 5-Aza-CdR for 24 hours (day 3 after treatment), β-actin control
# From the text: (A) The functional domains of MET include the signal peptide (SP), sema domain at the N-terminus, the PSI domain, IPT repeats, the transmembrane domain (TM), and the kinase domain at the C-terminus. The structure of truncated MET proteins 1 and 2 are shown, encoded by transcripts derived from placenta (GenBank accession no. BX334980) and a bladder carcinoma cell line (BF208095), respectively. (B) The two […] transcripts, truncated L1-MET-1 (T-MET-1) and truncated L1-MET-2 (T-MET-2), were cloned into a pMEV expression vector with 2 HA tags fused at the N-terminal. Hela cells were transfected with either the empty pMEV vector, pMEV T-MET-1, or pMEV T-MET-2 and protein was extracted after 48 hours. The expression of truncated MET-1 (90 kDa) and truncated MET-2 (60 kDa) was detected by western blot using an HA antibody. (C) Results of 5′RACE reveal the start site for L1-MET within the L1 element. The transcriptional start site of L1-MET was confirmed by 5′RACE in the T24 cell line which expressed L1-MET. The underlined sequence is located inside of the LINE-1. […] Found at: doi:10.1371/journal.pgen. 1000917.s002 (1.22 MB TIF)
# The transcript from the L1-MET anti-sense promoter contains its own exons 1 and 2, referred to as L1-MET exon 1 and L1-MET exon 2 (FIG. 7A). […]
# Quantitative RT-PCR. Expression was determined by quantitative RT-PCR as described previously.
smiles,measurement,setting,value
Nc1ncn([C@H]2C[C@H](O)[C@@H](CO)O2)c(=O)n1 [5-aza-deoxycytidine],expression (reactivation) of the L1-MET transcript,,lead to expression of L1-MET
same,expression (reactivation) of the L1-MET transcript,listed as 5-Aza-CdR,reactivation of L1-MET
